The results in this text go back to patent publication US10590129B2 (Incozen Therapeutics Pvt. Ltd., priority 2010, dated 2020).

Counter-ions that a name gives are not always drawn.

The assay concerns MKN-45 cells. As to the kind of experiment: Inhibition of MKN-45 proliferation (MTT). The class given is cell-based, human. The settings on record: for inhibition at 0.1 µM / Inhibition (% Inhibition of MKN-45 proliferation): 0.1 μM. Here is the method:
Inhibition of MKN-45 Proliferation:
Cell proliferation assays were carried out using the high Met expressing human gastric adenocarcinoma cell line, MKN-45, according to the following schedule:
Day 1: Cells were plated in 96-well plates in complete growth medium.
Day 2: Compounds at desired concentrations were added.
Day 5: Cell viability was determined using the 3-[4,5-dimethylthiazol-2-yl]-2,5-diphenyltetrazolium bromide (MTT) dye reduction test.

[1] abbreviates: Homo sapiens, MKN-45, MKN-45 proliferation.

On to `CCNC(=O)c1ccc(-c2ccc3nnn(Cc4ccc5c(ccc[n+]5[O-])c4)c3n2)cc1Cl`, for which, under setting [1], the inhibition (commonly the share of the control response that was lost under treatment) at 0.1 µM was less than 25% and the inhibition at 1 µM is less than 25%.
Regarding `Cc1n[nH]cc1-c1ccc2nnn(Cc3ccc4ncccc4c3)c2n1`, under setting [1], the inhibition at 0.1 µM fell in the range of 25 to 50% and the inhibition at 1 µM is less than 25%.
On to `CC(c1ccc2ncccc2c1)n1nnc2ccc(-c3ccc(C(N)=O)c(Cl)c3)nc21` (racemic) [Ex 214, 2-Chloro-4-(3-(1-(quinolin-6-yl)ethyl)-3H-[1,2,3]triazolo[4,5-b]pyridin-5-yl)benzamide], for which, under setting [1], the GI50 (in general, the concentration that inhibits growth by half) was not above 50 nM and the inhibition at 0.1 µM lay within 75 to 100%.
`C/C(=N/NC(=O)c1ccncc1)c1ccc2nnn(Cc3ccc4ncccc4c3)c2n1` (single isomer, unassigned) [Ex 220, N′-(1-(3-(quinolin-6-ylmethyl)-3H-[1,2,3]triazolo[4,5-b]pyridin-5-yl)ethylidene)iso-nicotinohydrazide]: the inhibition at 0.1 µM under setting [1] is less than 25%.
In the case of `OCc1ccc(-c2ccc3nnn(Cc4ccc5ncccc5c4)c3n2)cc1F` [Ex41, hydrochloride], for the setting “MKN-45 proliferation, hydrochloride”, the GI50 fell in the range of 50 to 150 nM.
Regarding `O=C(NC1CCCCC1)c1ccc(-c2ccc3nnn(Cc4ccc5ncccc5c4)c3n2)cc1F` [Ex45], under setting [1], the GI50 was in the range of 50 to 150 nM.
On the same count and under the same terms, with `CNC(=O)c1cccc(-c2ccc3nnn(Cc4ccc5ncccc5c4)c3n2)c1` [Ex55] the figure was 50 to 150 nM.
As to `C=CCNC(=O)c1ccc(-c2ccc3nnn(Cc4ccc5ncccc5c4)c3n2)cc1F` [Ex61], under setting [1], the concentration for 50% growth inhibition (GI50) is not above 50 nM.
On the same count and under the same terms, with `CONC(=O)c1ccc(-c2ccc3nnn(Cc4ccc5ncccc5c4)c3n2)cc1F` [Ex62] the figure was not above 50 nM.
The molecule `Nc1ccc(-c2ccc3nnn(Cc4ccc5ncccc5c4)c3n2)cc1` [Ex64] registered an inhibition at 0.1 µM under setting [1] of less than 25%.
The molecule `O=C(NCc1ccco1)c1ccc(-c2ccc3nnn(Cc4ccc5ncccc5c4)c3n2)cc1F` [Ex92] displayed an inhibition at 0.1 µM under setting [1] of less than 25%.
Same read-out and setting: then `O=C(NC1CC1)c1ccc(-c2ccc3nnn(Cc4ccc5ncccc5c4)c3n2)cc1Cl` [Ex113], with 75 to 100%.
`C[C@H](c1ccc2ncccc2c1)n1nnc2ccc(-c3ccc(C(N)=O)c(Cl)c3)nc21` [Ex222] showed a GI50 under setting [1] of 150 to 500 nM.
As for `O=C(O)c1ccc(-c2ccc3nnn(Cc4ccc5ncccc5c4)c3n2)cc1` [Ex 22, Lithium 4-(3-(quinolin-6-ylmethyl)-3H-[1,2,3]triazolo[4,5-b]pyridin-5-yl)benzoate], the inhibition at 1 µM (Homo sapiens, MKN-45 proliferation) was less than 25%.
In turn, `CN1CCN(C(=O)c2ccc(-c3ccc4nnn(Cc5ccc6ncccc6c5)c4n3)cc2)CC1` [Ex 26, (4-Methylpiperazin-1-yl)(4-(3-(quinolin-6-ylmethyl)-3H-[1,2,3]triazolo[4,5-b]pyridin-5-yl)phenyl)methanone] had a GI50 under setting [1] of less than 1000 nM.
The same measure, in the same setting: then `CN(C)CCNC(=O)c1ccc(-c2ccc3nnn(Cc4ccc5ncccc5c4)c3n2)cc1` [Ex 27, N-(2-(dimethylamino)ethyl)-4-(3-(quinolin-6-ylmethyl)-3H-[1,2,3]triazolo[4,5-b]pyridin-5-yl)benzamide], with 50 to 150 nM; and `O=C(NC1CCOCC1)c1ccc(-c2ccc3nnn(Cc4ccc5ncccc5c4)c3n2)cc1` [Ex 28, 4-(3-(quinolin-6-ylmethyl)-3H-[1,2,3]triazolo[4,5-b]pyridin-5-yl)-N-(tetrahydro-2H-pyran-4-yl)benzamide], with 150 to 500 nM.
On the same count and under the same terms, then `O=C(NC1CCNCC1)c1ccc(-c2ccc3nnn(Cc4ccc5ncccc5c4)c3n2)cc1` [Ex 30, N-(Piperidin-4-yl)-4-(3-(quinolin-6-ylmethyl)-3H-[1,2,3]triazolo[4,5-b]pyridin-5-yl)benzamide hydrochloride], with 150 to 500 nM; and `CN(C)CCNC(=O)c1ccc(-c2ccc3nnn(Cc4ccc5ncccc5c4)c3n2)cc1F` [Ex 31, N-(2-(dimethylamino)ethyl)-2-fluoro-4-(3-(quinolin-6-ylmethyl)-3H-[1,2,3]triazolo[4,5-b]pyridin-5-yl)benzamide], with 150 to 500 nM; and `O=C(c1ccc(-c2ccc3nnn(Cc4ccc5ncccc5c4)c3n2)cc1)N1CCC[C@H]1CN1CCCC1` [Ex 32, (S)-(2-(pyrrolidin-1-ylmethyl)pyrrolidin-1-yl)(4-(3-(quinolin-6-ylmethyl)-3H-[1,2,3]triazolo[4,5-b]pyridin-5-yl)phenyl)methanone hydrochloride], with less than 1000 nM.
Consider `O=C(c1ccc(-c2ccc3nnn(Cc4ccc5ncccc5c4)c3n2)cc1)N1CCN(CCO)CC1` [Ex 33, (4-(2-hydroxyethyl)piperazin-1-yl)(4-(3-(quinolin-6-ylmethyl)-3H-[1,2,3]triazolo[4,5-b]pyridin-5-yl)phenyl)methanone], for which the GI50 under setting [1] lay within 150 to 500 nM.
Under setting [1], `O=C(c1ccc(-c2ccc3nnn(Cc4ccc5ncccc5c4)c3n2)cc1)N1CC[C@@H](O)C1` [Ex 34, (R)-(3-hydroxypyrrolidin-1-yl)(4-(3-(quinolin-6-ylmethyl)-3H-[1,2,3]triazolo[4,5-b]pyridin-5-yl)phenyl)methanone hydrochloride] returned a GI50 of less than 1000 nM.
With `O=C(NCCN1CCCCC1)c1ccc(-c2ccc3nnn(Cc4ccc5ncccc5c4)c3n2)cc1` [Ex 35, N-(2-(piperidin-1-yl)ethyl)-4-(3-(quinolin-6-ylmethyl)-3H-[1,2,3]triazolo[4,5-b]pyridin-5-yl)benzamide], under setting [1], the GI50 was 50 to 150 nM.
The same measure, in the same setting: then `O=C(NCCN1CCOCC1)c1ccc(-c2ccc3nnn(Cc4ccc5ncccc5c4)c3n2)cc1` [Ex 36, N-(2-morpholinoethyl)-4-(3-(quinolin-6-ylmethyl)-3H-[1,2,3]triazolo[4,5-b]pyridin-5-yl)benzamide], with 50 to 150 nM.
On the same count and under the same terms, with `O=C(NCCN1CCCC1)c1ccc(-c2ccc3nnn(Cc4ccc5ncccc5c4)c3n2)cc1` [Ex 37, N-(2-(pyrrolidin-1-yl)ethyl)-4-(3-(quinolin-6-ylmethyl)-3H-[1,2,3]triazolo[4,5-b]pyridin-5-yl)benzamide] the figure was not above 50 nM; with `O=C(c1ccc(-c2ccc3nnn(Cc4ccc5ncccc5c4)c3n2)cc1)N1CCC(N2CCCC2)CC1` [Ex 38, (4-(pyrrolidin-1-yl)piperidin-1-yl)(4-(3-(quinolin-6-ylmethyl)-3H-[1,2,3]triazolo[4,5-b]pyridin-5-yl)phenyl)methanone], less than 1000 nM; with `CN(C)CCCNC(=O)c1ccc(-c2ccc3nnn(Cc4ccc5ncccc5c4)c3n2)cc1` [Ex 39, N-(3-(dimethylamino)propyl)-4-(3-(quinolin-6-ylmethyl)-3H-[1,2,3]triazolo[4,5-b]pyridin-5-yl)benzamide], 50 to 150 nM.
On the same count and under the same terms, then `COCCN(CCOC)C(=O)c1ccc(-c2ccc3nnn(Cc4ccc5ncccc5c4)c3n2)cc1` [Ex 40, N,N-Bis(2-methoxyethyl)-4-(3-(quinolin-6-ylmethyl)-3H-[1,2,3]triazolo[4,5-b]pyridin-5-yl)benzamide hydrochloride], with less than 1000 nM; and `O=C(NCCN1CCCC1)c1ccc(-c2ccc3nnn(Cc4ccc5ncccc5c4)c3n2)cc1F` [Ex 44, 2-Fluoro-N-(2-(pyrrolidin-1-yl)ethyl)-4-(3-(quinolin-6-ylmethyl)-3H-[1,2,3]triazolo[4,5-b]pyridin-5-yl)benzamide], with 50 to 150 nM.
The molecule `CNC(=O)c1cccc(-c2ccc3nnn(Cc4ccc5ncccc5c4)c3n2)c1` [Ex 55, N-Methyl-3-(3-(quinolin-6-ylmethyl)-3H-[1,2,3]triazolo[4,5-b]pyridin-5-yl)benzamide] returned an inhibition at 0.1 µM under setting [1] of less than 25%.
Under setting [1], `O=C(O)CCNc1ccc(-c2ccc3nnn(Cc4ccc5ncccc5c4)c3n2)cc1F` [Ex 58, 3-(2-Fluoro-4-(3-(quinolin-6-ylmethyl)-3H-[1,2,3]triazolo[4,5-b]pyridin-5-yl)phenylamino)propanoic acid] registered an inhibition at 0.1 µM of less than 25% and an inhibition at 1 µM of less than 25%.
Under setting [1], `CCNC(=O)c1ccc(-c2ccc3nnn(Cc4ccc5ncccc5c4)c3n2)cc1F` [Ex 73, N-Ethyl-2-fluoro-4-(3-(quinolin-6-ylmethyl)-3H-[1,2,3]triazolo[4,5-b]pyridin-5-yl)benzamide hydrochloride] had an inhibition at 0.1 µM of 75 to 100% and an inhibition at 1 µM of 50 to 75%.
In the same order, the values of `NC(=O)c1ccc(-c2ccc3nnn(Cc4ccc5ncccc5c4)c3n2)cc1F` [Ex 74, 2-Fluoro-4-(3-(quinolin-6-ylmethyl)-3H-[1,2,3]triazolo[4,5-b]pyridin-5-yl)benzamide hydrochloride] are 50 to 75% and 50 to 75%.
The like results for `CC(C)(c1ccc2ncccc2c1)n1nnc2ccc(-c3ccc(C(N)=O)c(F)c3)nc21` [Ex 84, 2-Fluoro-4-(3-(2-(quinolin-6-yl)propan-2-yl)-3H-[1,2,3]triazolo[4,5-b]pyridin-5-yl)benzamide] were, in that order, less than 25% and less than 25%.
In the case of `O=C(NC1CC1)c1ccc(-c2ccc3nnn(Cc4ccc5c(ccc[n+]5[O-])c4)c3n2)cc1F` [Ex 88, 6-((5-(4-(Cyclopropylcarbamoyl)-3-fluorophenyl)-3H-[1,2,3]triazolo[4,5-b]pyridin-3-yl)methyl)quinoline 1-oxide], under setting [1], the inhibition at 0.1 µM was less than 25% and the inhibition at 1 µM was less than 25%.
`CN(C)CCCNC(=O)c1ccc(-c2ccc3nnn(Cc4ccc5ncccc5c4)c3n2)cc1F` [Ex 121, N-(3-(dimethylamino)propyl)-2-fluoro-4-(3-(quinolin-6-ylmethyl)-3H-[1,2,3]triazolo[4,5-b]pyridin-5-yl)benzamide dihydrochloride] had an inhibition at 1 µM under setting [1] of less than 25%. Also, the “Inhibition (% Inhibition of MKN-45 proliferation)” value (MKN-45 proliferation, dihydrochloride) is listed as “A (A = ≥75 to 100%)”.
In the case of `Cl.NC(=O)c1ccc(-c2ccc3nnn(Cc4ccc5ncccc5c4)c3n2)cc1Cl` [Ex 123, 2-Chloro-4-(3-(quinolin-6-ylmethyl)-3H-[1,2,3]triazolo[4,5-b]pyridin-5-yl)benzamide hydrochloride], the “Inhibition (% Inhibition of MKN-45 proliferation)” value (MKN-45 proliferation) was “B (B = ≥50-<75%)”.
